Results: PubChem BioAssay (NCI)
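48-hour exposure; five concentrations; linearly interpolated endpoints. TGI denotes the concentration required for complete inhibition of growth.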

Legend:
Assay in all cases: growth of human tumour cells (NCI), 48 h
MDA-N = tested on: MDA-N
SK-MEL-5 melanoma = tested on: SK-MEL-5 melanoma
HCT-15 colon = tested on: HCT-15 colon
LOX IMVI melanoma = tested on: LOX IMVI melanoma
NCI-H460 lung = tested on: NCI-H460 lung
HT29 colon = tested on: HT29 colon
IGROV1 ovarian = tested on: IGROV1 ovarian
A498 renal = tested on: A498 renal
SF-295 CNS = tested on: SF-295 CNS
DU-145 prostate = tested on: DU-145 prostate
MOLT-4 leukemia = tested on: MOLT-4 leukemia
UACC-257 melanoma = tested on: UACC-257 melanoma
HCC-2998 colon = tested on: HCC-2998 colon
M14 melanoma = tested on: M14 melanoma
SK-MEL-28 melanoma = tested on: SK-MEL-28 melanoma
PC-3 prostate = tested on: PC-3 prostate
SK-OV-3 ovarian = tested on: SK-OV-3 ovarian
TK-10 renal = tested on: TK-10 renal
SW-620 colon = tested on: SW-620 colon
RXF 393 renal = tested on: RXF 393 renal

SMILES	TGI (MDA-N) [µM]	TGI (SK-MEL-5 melanoma) [µM]	TGI (HCT-15 colon) [µM]	TGI (LOX IMVI melanoma) [µM]	TGI (NCI-H460 lung) [µM]	TGI (HT29 colon) [µM]	TGI (IGROV1 ovarian) [µM]	TGI (A498 renal) [µM]	TGI (SF-295 CNS) [µM]	TGI (DU-145 prostate) [µM]	TGI (MOLT-4 leukemia) [µM]	TGI (UACC-257 melanoma) [µM]	TGI (HCC-2998 colon) [µM]	TGI (M14 melanoma) [µM]	TGI (SK-MEL-28 melanoma) [µM]	TGI (PC-3 prostate) [µM]	TGI (SK-OV-3 ovarian) [µM]	TGI (TK-10 renal) [µM]	TGI (SW-620 colon) [µM]	TGI (RXF 393 renal) [µM]
CC(C)[Si]1(C(C)C)OCC2OC(n3c(C(=O)c4ccccc4)cc(=O)[nH]c3=O)CC2O[Si](C(C)C)(C(C)C)O1 (stereo not drawn)	11.7	14	7.89	3.93	15.9	4.22	10.1	24.8	13.8	24.6	4.76	6.04	3.41	14.4	15	6.22	27.2	9.23	8.32	7.37
NC(=O)C(=CNC(=S)Nc1ccc(S(=O)(=O)Nc2ccccn2)cc1)C(N)=O	> 100	> 100	> 100	> 100	> 100	> 100	> 100	> 100	> 100	> 100	5.76	> 100	–	> 100	> 100	> 100	> 100	> 100	> 100	> 100
CSc1nn(C)cc2nc(C)nc1-2	> 100	> 100	> 100	–	> 100	> 100	> 100	> 100	> 100	> 100	> 100	> 100	–	> 100	> 100	> 100	–	> 100	> 100	> 100
CC(C)CC1c2[nH]c3ccccc3c2C[C@H]2C(=O)NC(CCCCNC(=O)OC(C)(C)C)C(=O)N12 (stereo partly drawn)	> 100	> 100	> 100	> 100	–	64.6	> 100	> 100	40.9	> 100	51.8	> 100	–	> 100	> 100	65.5	–	> 100	> 100	27.3
O=C1C2Cc3c(n(C(=O)c4ccccc4)c4ccccc34)CC2C(=O)N1c1ccc(Nc2ccc(N3C(=O)C4Cc5c(n(C(=O)c6ccccc6)c6ccccc56)CC4C3=O)cc2)cc1 (stereo not drawn)	> 100	> 100	> 100	> 100	> 100	> 100	> 100	> 100	> 100	> 100	> 100	> 100	> 100	> 100	> 100	> 100	> 100	> 100	–	> 100
C=C1C(=O)O[C@H]2C/C(C)=C/CC[C@]3(C)CCC[C@](C)(CC[C@@H]12)O3	> 50	13.8	> 50	> 50	16.9	15.2	14.5	–	> 50	> 50	15.7	21.7	14.5	–	15.8	41.5	> 50	18.4	17.7	18.4
COc1cc(C(c2cccc3ccccc23)N2C(=O)CCC2C(=O)O)cc(OC)c1OC (stereo not drawn)	> 100	> 100	> 100	–	> 100	> 100	> 100	> 100	> 100	> 100	> 100	> 100	–	> 100	> 100	> 100	> 100	–	> 100	> 100
[N-]=[N+]=Nc1ccc2c(c1)Sc1ccccc1N2CCCCN1CCN(Cc2ccc(C(=O)c3ccc(CSCC(N)C(=O)O)cc3)cc2)CC1 (stereo not drawn)	35.4	34.9	30.4	24.9	> 100	30.7	30.9	37.7	44.5	67.7	> 100	69.2	59.2	–	3.8	> 100	> 100	> 100	4.79	> 100
O/C(=C\c1nc2ccccc2nc1/C=C(\O)c1ccc(F)cc1)c1ccc(F)cc1	> 100	> 100	> 100	> 100	> 100	> 100	> 100	> 100	–	> 100	> 100	> 100	> 100	> 100	> 100	> 100	–	> 100	> 100	> 100
CCOC(=O)c1nc2ccccc2nc1Oc1ccc(C#N)cc1	> 100	> 100	> 100	> 100	> 100	> 100	> 100	> 100	> 100	> 100	> 100	> 100	–	> 100	> 100	> 100	> 100	> 100	> 100	> 100
O=C1NC(=S)NC(=O)C1=Cc1ccc(-c2ccccc2)cc1	> 100	> 100	> 100	> 100	> 100	> 100	> 100	–	> 100	> 100	> 100	> 100	> 100	> 100	–	> 100	> 100	> 100	> 100	> 100
CCN(CC)C(=S)SC1C(=O)NC(=O)NC1=O	> 100	> 100	> 100	> 100	12.7	> 100	> 100	6.06	> 100	> 100	> 100	> 100	> 100	–	> 100	> 100	> 100	> 100	> 100	> 100
COc1cc(C2SCC(=O)N2c2ccc(NC(C)=O)cc2)cc(OC)c1OC (stereo not drawn)	> 100	> 100	> 100	> 100	> 100	> 100	> 100	> 100	> 100	> 100	> 100	> 100	> 100	> 100	> 100	> 100	> 100	> 100	> 100	–
CCc1cc2c(c3c1CCCC3)CC1(Cc3ccc(C(=O)OC)cc3C1)C2 (stereo not drawn)	> 100	> 100	> 100	> 100	> 100	> 100	> 100	–	> 100	> 100	> 100	> 100	> 100	> 100	> 100	> 100	> 100	> 100	> 100	> 100
CCO/C(O)=C(/C(=N)N1CCCC1)C(=O)Nc1cccc(Cl)c1	> 100	–	> 100	> 100	> 100	> 100	> 100	> 100	> 100	> 100	> 100	> 100	> 100	> 100	> 100	> 100	> 100	> 100	> 100	> 100
N#Cc1ncn(CCO)c1N	> 100	> 100	> 100	> 100	> 100	> 100	> 100	> 100	> 100	> 100	> 100	> 100	> 100	> 100	> 100	> 100	> 100	> 100	> 100	–
COc1cc(COC(=O)N2CC=CC2C(=O)O)c([N+](=O)[O-])cc1OC (stereo not drawn)	> 100	> 100	> 100	–	> 100	> 100	> 100	> 100	> 100	> 100	> 100	> 100	> 100	> 100	> 100	> 100	> 100	> 100	> 100	> 100
C[C@@H]1CCC2C(C)(C)C(/C=C\C=O)C3(C)OC213 (stereo partly drawn)	> 100	53.2	> 100	–	> 100	62	> 100	> 100	> 100	> 100	86.9	> 100	78.4	> 100	> 100	> 100	> 100	> 100	> 100	> 100
CCCCCCNC(=S)N/N=C(\C)c1ccccn1	20.6	14.7	21.9	12.3	8.81	19.4	18.4	14.4	12.5	30.4	–	15.3	20.9	6.86	18.5	24.1	21.6	42	19.3	12.5
O=c1cc(NNc2ccccc2F)[nH]c(=O)[nH]1	32.5	49.5	29.6	29.7	2.3	34.9	30.4	> 100	–	> 100	54	32	34.9	31.5	35.1	32.9	60.8	27.5	31.9	3.29
CCCC(C)NC(=O)c1ccc(N(C)Cc2cnc3nc(N)nc(N)c3n2)cc1 (stereo not drawn)	> 100	37.4	> 100	82.6	> 100	58.6	> 100	> 100	> 100	> 100	> 100	57.5	–	31.1	42.3	> 100	> 100	86.1	> 100	84.5
COC(=O)c1nn2ccc3ccccc3c2c1C(=O)OC	> 100	> 100	> 100	> 100	> 100	> 100	> 100	> 100	> 100	> 100	> 100	> 100	–	> 100	> 100	> 100	> 100	> 100	> 100	> 100
CC(=O)C1(C)CC(C#N)(C#N)C(C#N)=C1N (stereo not drawn)	> 100	> 100	> 100	> 100	–	> 100	> 100	> 100	> 100	> 100	> 100	> 100	> 100	> 100	–	> 100	> 100	> 100	> 100	> 100
O=C(c1ccccc1)c1ccc2c(c1)nc1n2C(c2c(F)cccc2F)SC1 (stereo not drawn)	55.1	27.8	> 100	> 100	> 100	55.9	> 100	72.5	> 100	> 100	–	> 100	> 100	61	> 100	> 100	> 100	> 100	> 100	> 100
CCN(CC)c1ccc(C2Nc3ccc4ccccc4c3C3=C2C(=O)CCC3)cc1 (stereo not drawn)	> 100	–	> 100	–	> 100	> 100	–	> 100	> 100	62.8	> 100	> 100	> 100	> 100	> 100	> 100	> 100	–	> 100	59.1
